Assays:
[1] = target: T1, S1P1 (Homo sapiens, UniProt P21453); assay: Receptor binding assay, [33P]sphingosine 1-phosphate, membranes, WGA SPA beads; details: membranes from CHO cells expressing S1P1; 25 pM [33P]S1P; 60 min RT
T1 construct: expressed in transfected cells; host or cells: CHO cells (membranes)
Experimental: (§1) Receptor binding assay: Membranes were prepared from CHO cells expressing S1P1 or S1P3 for use in ligand and […] binding studies. Cells were suspended in 50 mM TRIS, pH 7.4, 2 mM EDTA, 250 mM Sucrose (buffer A) and 1× Complete protease inhibitor cocktail (Roche), and disrupted at 4° C. by N2 decompression using a cell disruption bomb (Parr Instrument). Following centrifugation at 1000 RPM for 10 min at 4° C., the supernatant was suspended in buffer A and centrifuged again at 19000 RPM for 60 min at 4° C. The pellet was then suspended in 10 mM HEPES, pH 7.4, 1 mM EDTA, 250 mM Sucrose (Buffer B), and 1× Complete EDTA-free protease inhibitor cocktail and homogenized using a potter. Membranes were flash frozen in liquid N2 and stored at −80° C. [33P]sphingosine 1-phosphate (3000 Ci/mmol; American Radiolabeled Chemicals, Inc.) was added to test compounds in DMSO. Membranes and WGA SPA beads (GE Healthcare) were added to give a final volume of 100 μl in 96-well plates with assay concentrations of 25 pM or 10 pM [33P]sphingosine 1-phosphate (respectively for S1P1 or S1P3), 50 mM HEPES, pH 7.5, 5 mM MgCl2, 100 mM NaCl, 0.4% fatty acid-free BSA, 1-5 μg/well of proteins and 100 μg/well of WGA SPA beads. Binding was performed for 60 min at RT on a shaker and bound radioactivity was measured on a PerkinElmer 1450 MicroBeta counter. Specific binding was calculated by subtracting remaining radioactivity in the presence of 1000-fold excess of unlabeled S1P. Binding data were analyzed using the GraphPad Prism program.

[2] = target: T1, S1P1; assay: 35S-GTPγS binding, S1P1 membranes; type: biochemical; details: membranes from CHO cells expressing S1P1; 60 min 30° C.
Outline: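 CHO-cell membranes expressing S1P1 or S1P3 (1-10 μg) incubated with compounds in 20 mM HEPES pH 7.4, 10 mM MgCl2, 140 mM NaCl, saponin, 0.2% BSA, 1.7 μM GDP and [35S]-GTPγS (20 μl of 1.5 nM added), 60 min at 30° C. Bound radioactivity expressed as % of S1P activation.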

[3] = target: T2, S1P3 (Homo sapiens, UniProt Q99500); assay: 35S-GTPγS binding, S1P3 membranes; type: biochemical; details: membranes from CHO cells expressing S1P3; 60 min 30° C.
T2 construct: expressed in transfected cells; host or cells: CHO cells (membranes)
T2 sequence (Q99500 whole entry, species assumed): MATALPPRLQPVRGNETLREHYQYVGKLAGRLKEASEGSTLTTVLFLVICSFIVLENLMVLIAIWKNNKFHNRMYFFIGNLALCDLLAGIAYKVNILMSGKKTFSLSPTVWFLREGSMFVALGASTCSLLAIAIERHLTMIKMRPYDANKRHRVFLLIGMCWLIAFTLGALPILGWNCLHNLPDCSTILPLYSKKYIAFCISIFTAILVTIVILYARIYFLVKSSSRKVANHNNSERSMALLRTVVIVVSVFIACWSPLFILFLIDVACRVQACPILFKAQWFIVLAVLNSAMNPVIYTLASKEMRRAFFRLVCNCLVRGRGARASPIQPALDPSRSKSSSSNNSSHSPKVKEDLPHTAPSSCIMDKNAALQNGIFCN
Experimental: as §1
Measurements of ^35S-GTPγS Binding: Membranes (1 to 10 μg protein) prepared as described above, were incubated in 96-well Scintiplates (PerkinElmer) with test compounds diluted in DMSO, in 180 μl of 20 mM HEPES, pH 7.4, 10 mM MgCl2, 2 μg/well Saponin, 0.2% fatty acid free BSA (Assay buffer), 140 mM NaCl and 1.7 μM GDP. The assay was initiated with the addition of 20 μl of 1.5 nM [35S]-GTPγS (1100 Ci/mmol; GE Healthcare) in assay buffer. After 60 min incubation at 30° C. on a shaker, plates were centrifuged for 10 min at 2000 RPM. Supernatant was discarded and membrane bound radioactivity was measured on a PerkinElmer 1450 MicroBeta counter. Triplicate samples were averaged and expressed as % response relative to S1P activation in absence of compound (n=2).

T1 sequence (P21453 whole entry, species assumed): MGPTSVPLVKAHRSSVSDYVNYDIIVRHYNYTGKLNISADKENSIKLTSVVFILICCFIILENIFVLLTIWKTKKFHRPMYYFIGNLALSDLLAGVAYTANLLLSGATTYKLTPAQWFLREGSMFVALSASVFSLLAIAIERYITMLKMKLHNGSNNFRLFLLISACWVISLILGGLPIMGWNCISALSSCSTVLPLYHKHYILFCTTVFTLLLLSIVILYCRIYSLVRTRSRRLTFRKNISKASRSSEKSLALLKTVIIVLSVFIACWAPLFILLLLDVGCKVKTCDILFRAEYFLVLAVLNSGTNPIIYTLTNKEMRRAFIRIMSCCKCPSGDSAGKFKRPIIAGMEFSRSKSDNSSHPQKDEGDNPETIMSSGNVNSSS

Compound	Ki [1]	EC50 [2]	EC50 [3]
CC1CCCCN1c1ccc(-c2nc(-c3ccc(OCC(=O)O)c(F)c3)no2)cc1C(F)(F)F (stereo not drawn) [Example 47, (2-fluoro-4-{5-[4-(2-methylpiperidin-1-yl)-3-(trifluoromethyl)phenyl]-1,2,4-oxadiazol-3-yl}phenoxy)acetic acid]	4 nM	40 nM	1000 nM
CCS(=O)(=O)Nc1cc(-c2nc(-c3ccc(C(=O)O)c(F)c3)no2)ccc1N1CCCCC1C (stereo not drawn) [Example 67, 4-{5-[3-[(ethylsulfonyl)amino]-4-(2-methylpiperidin-1-yl)phenyl]-1,2,4-oxadiazol-3-yl}-2-fluorobenzoic acid]	67 nM	72 nM	1750 nM
CC1CCCCN1c1ccc(-c2nc(-c3ccc(C(=O)O)c(F)c3)no2)cc1NS(=O)(=O)N(C)C (stereo not drawn) [Example 73, 4-{5-[3-{[(dimethylamino)sulfonyl]amino}-4-(2-methylpiperidin-1-yl)phenyl]-1,2,4-oxadiazol-3-yl}-2-fluorobenzoic acid]	213 nM	122 nM	2000 nM
COCc1cc(-c2nc(-c3ccc(C(=O)NCC(=O)O)c(F)c3)no2)ccc1-c1ccccc1C [Example 124, N-(2-fluoro-4-{5-[2-(methoxymethyl)-2′-methylbiphenyl-4-yl]-1,2,4-oxadiazol-3-yl}benzoyl)glycine]	2 nM	22 nM	1000 nM
CCOc1cc(-c2nc(-c3ccc(C(=O)O)c(F)c3)no2)ccc1-c1ccccc1C [Example 102, 4-[5-(2-ethoxy-2′-methylbiphenyl-4-yl)-1,2,4-oxadiazol-3-yl]-2-fluorobenzoic acid]	11 nM	58 nM	1760 nM
COc1ncccc1-c1ccc(-c2nc(-c3ccc(C(=O)O)c(F)c3)no2)cc1C [Example 28, 2-fluoro-4-{5-[4-(2-methoxypyridin-3-yl)-3-methylphenyl]-1,2,4-oxadiazol-3-yl}benzoic acid]	190 nM	834 nM	> 30000 nM
COCc1cc(-c2nc(-c3ccc(C(=O)O)c(F)c3)no2)ccc1-c1ccccc1C(F)(F)F [Example 86, 2-fluoro-4-{5-[2-(methoxymethyl)-2′-(trifluoromethyl)biphenyl-4-yl]-1,2,4-oxadiazol-3-yl}benzoic acid]	48 nM	155 nM	> 20000 nM
CC1CCCCN1c1ccc(-c2nc(-c3ccc(C(=O)O)c(F)c3)no2)cc1C#N (stereo not drawn) [Example 29, 4-{5-[3-cyano-4-(2-methylpiperidin-1-yl)phenyl]-1,2,4-oxadiazol-3-yl}-2-fluorobenzoic acid]	70 nM	430 nM	> 30000 nM

The remaining molecules from weak to strong by Ki [1], led by results:

Ki [1]	EC50 [2]	EC50 [3]	Compound
2 nM	1.3 nM	1150 nM	COCc1cc(-c2nc(-c3ccc(C(=O)NCCc4nnn[nH]4)c(F)c3)no2)ccc1-c1ccccc1C [Example 177, 2-fluoro-4-{5-[2-(methoxymethyl)-2′-methylbiphenyl-4-yl]-1,2,4-oxadiazol-3-yl}-N-[2-(1H-tetrazol-5-yl)ethyl]benzamide]
1 nM	2.1 nM	574 nM	COCc1cc(-c2nc(-c3cccc(CO)c3)no2)ccc1-c1ccccc1C [Example 189, (3-{5-[2-(methoxymethyl)-2′-methylbiphenyl-4-yl]-1,2,4-oxadiazol-3-yl}phenyl)methanol]
0.8 nM	0.7 nM	214 nM	COCc1cc(-c2nc(-c3cccc(S(N)(=O)=O)c3)no2)ccc1-c1ccccc1C [Example 170, 3-{5-[2-(methoxymethyl)-2′-methylbiphenyl-4-yl]-1,2,4-oxadiazol-3-yl}benzenesulfonamide]
0.3 nM	0.5 nM	95 nM	COCc1cc(-c2nc(-c3cccc(CN(C)CCC(=O)O)c3)no2)ccc1-c1ccccc1C [Example 150, N-(3-{5-[2-(methoxymethyl)-2′-methylbiphenyl-4-yl]-1,2,4-oxadiazol-3-yl}benzyl)-N-methyl-beta-alanine]

Source: patent publication US8202865B2, “Oxadiazole derivatives” (Merck Serono SA, priority 2007, dated 2012)
